# According to patent publication US10130633B2, “Compounds” (BAYER PHARMA AKTIENGESELLSCHAFT, priority 2013, dated 2018):
# What was measured:
# [1] = test system: constitutive active colorectal cancer cell (CRC) Wnt pathway; test: HCT116 TOPFlash cellular reporter assay (Super TopFlash luciferase), constitutive active Wnt pathway; type: cell-based; settings: Homo sapiens, HCT-116, 36 h, HCT116 TOP reporter cells, 36 hours incubation, luciferase expression
# Experimental: In order to discover and characterize small molecules which inhibit the constitutive active colorectal cancer cell (CRC) Wnt pathway, a cellular reporter assay was employed. […] Stable transfectants were generated by cotransfection with pcDNA3 and selection of stable transfected cells with 1 mg/ml G418.
# [2] = test system: HCT116 FOP control reporter cell line; test: HCT116 FOPFlash control reporter assay (FOP control vector, non-functional TCF elements); type: cell-based; settings: Homo sapiens, HCT-116, 36 h, HCT116 FOP control reporter cells, 36 hours incubation, luciferase expression
# Source text: In a parallel approach, HCT116 cells were cotransfected with the FOP control vector and pcDNA3. The FOP vector is identical to the TOP construct, but it contains instead of functional TCF elements a randomized, non-functional sequence. For this transfection a stable transfected cell line was generated as well.
SMILES,IC50 [1] [µM],IC50 [2] [µM]
"O=C(Nc1nnc(-c2ccccc2)s1)c1ccc(OCc2ccccc2)c(NC(=O)C2(N3CCOCC3)CC2)c1 [Example 92, 4-(benzyloxy)-3-({[1-(morpholin-4-yl)cyclopropyl]carbonyl}amino)-N-(5-phenyl-1,3,4-thiadiazol-2-yl)benzamide]",0.36,≥ 50
"O=C(Nc1nnc(-c2ccccc2)s1)c1ccc(O)c(NC(=O)C2(N3CCOCC3)CC2)c1 [Example 93, 4-hydroxy-3-({[1-(morpholin-4-yl)cyclopropyl]carbonyl}amino)-N-(5-phenyl-1,3,4-thiadiazol-2-yl)benzamide]",0.24,≥ 50
"CN1CCN(CC(=O)Nc2cc(C(=O)Nc3nnc(-c4ccccc4)s3)ccc2Br)CC1 [Example 94, 4-bromo-3-{[(4-methylpiperazin-1-yl)acetyl]amino}-N-(5-phenyl-1,3,4-thiadiazol-2-yl)benzamide]",0.433,≥ 50
"Cc1cccc(-c2nnc(NC(=O)c3ccc(OC(F)(F)F)c(NC(=O)CN4CCOCC4)c3)s2)c1 [Example 96, N-[5-(3-methylphenyl)-1,3,4-thiadiazol-2-yl]-3-[(morpholin-4-ylacetyl)amino]-4-(trifluoromethoxy)benzamide]",0.855,≥ 50
"O=C(CN1CCOCC1)Nc1cc(C(=O)Nc2nnc(-c3ccc([N+](=O)[O-])cc3)s2)ccc1OC(F)(F)F [Example 97, 3-[(morpholin-4-ylacetyl)amino]-N-[5-(4-nitrophenyl)-1,3,4-thiadiazol-2-yl]-4-(trifluoromethoxy)benzamide]",1.93,≥ 50
"Cc1ccccc1-c1nnc(NC(=O)c2ccc(OC(F)(F)F)c(NC(=O)CN3CCOCC3)c2)s1 [Example 98, N-[5-(2-methylphenyl)-1,3,4-thiadiazol-2-yl]-3-[(morpholin-4-ylacetyl)amino]-4-(trifluoromethoxy)benzamide]",0.087,26.4
"O=C(CN1CCOCC1)Nc1cc(C(=O)Nc2nnc(-c3ccc(F)cc3)s2)ccc1OC(F)(F)F [Example 99, N-[5-(4-fluorophenyl)-1,3,4-thiadiazol-2-yl]-3-[(morpholin-4-ylacetyl)amino]-4-(trifluoromethoxy)benzamide]",0.935,9.3
"O=C(CN1CCN(CC(F)F)CC1)Nc1cc(C(=O)Nc2ccc(-c3ccccc3F)nc2)ccc1OC(F)(F)F [Example 100, 3-({[4-(2,2-difluoroethyl)piperazin-1-yl]acetyl}amino)-N-[6-(2-fluorophenyl)pyridin-3-yl]-4-(trifluoromethoxy)benzamide]",0.858,≥ 50
"COc1ccccc1-c1nnc(NC(=O)c2ccc(OC(F)(F)F)c(NC(=O)CN3CCN(C)CC3)c2)s1 [Example 101, N-[5-(2-methoxyphenyl)-1,3,4-thiadiazol-2-yl]-3-{[(4-methylpiperazin-1-yl)acetyl]amino}-4-(trifluoromethoxy)benzamide]",3.2,≥ 50
"Cc1ccc(-c2nnc(NC(=O)c3ccc(OC(F)(F)F)c(NC(=O)CN4CCN(C)CC4)c3)s2)cc1 [Example 102, N-[5-(4-methylphenyl)-1,3,4-thiadiazol-2-yl]-3-{[(4-methylpiperazin-1-yl)acetyl]amino}-4-(trifluoromethoxy)benzamide]",0.458,19.5
"Cc1ccc(C(=O)Nc2nnc(-c3ccccc3)s2)cc1NC(=O)C1(N2CCOCC2)CC1 [Example 103, 4-methyl-3-({[1-(morpholin-4-yl)cyclopropyl]carbonyl}amino)-N-(5-phenyl-1,3,4-thiadiazol-2-yl)benzamide]",0.752,21
"CN1CCN(CC(=O)Nc2cc(C(=O)Nc3nnc(-c4ccccc4)s3)ccc2CS(C)(=O)=O)CC1 [Example 104, 3-{[(4-methylpiperazin-1-yl)acetyl]amino}-4-[(methylsulfonyl)methyl]-N-(5-phenyl-1,3,4-thiadiazol-2-yl)benzamide]",2.03,≥ 50
